# Source: patent publication US11667612B2, “Compositions and methods for delivering pharmaceutical agents” (Arizona Board of Regents on Behalf of the University of …, priority 2017, dated 2023)
# Values joined by “and” are separate entries in the source; they are usually repeats but may differ in a detail not shown here. Equal values may be shown once.
# Experiments:
# [1] = Karl Fischer coulometric titration, residual water content; assay type: physicochemical
# [2] = test system: Calu-3 lung epithelial cells; assay: In vitro transepithelial electrical resistance (TEER) analysis; assay type: cell-based, human; details: Calu-3, AIC, 100 μM
# Method: The cells were seeded at 500,000 cells/ml in Costar Transwells® (0.4 μm polyester membrane, 12 mm for a 12-well plate) with 0.5 ml of media on the apical side and 1.5 ml of media on the basolateral side. Media was changed every other day from the basolateral and apical side. After 10 days of growth, when the cells reached a TEER value of about 1000 Ω/cm^2 which is an indicator of a confluent monolayer at liquid covered culture (LCC) the media was removed from both sides and 800 μl of media was added to the basolateral side of the Transwells to facilitate air-interface culture (AIC) conditions. The TEER responses of the cells were measured with an Endohom 12 mm Culture Cup (World Precision Instruments, Sarasota, Fla.). […] TEER values were then recorded for up to 7 days after aerosol treatment, as previously reported (Meenach S A, 2014, supra; Meenach S A, et al., April 2016; 48(4):1701-1709).
# The cells were seeded at 500,000 cells/ml in Costar Transwells® (0.4 μm polyester membrane, 12 mm for a 12-well plate) with 0.5 ml of media on the apical side and 1.5 ml of media on the basolateral side. […] The TEER responses of the cells were measured with an Endohom 12 mm Culture Cup (World Precision Instruments, Sarasota, Fla.). […] TEER values were then recorded for up to 7 days after aerosol treatment, as previously reported (Meenach et al., 2014, supra; Meenach et al., 2016, supra).
# [3] = In vitro aerosol dispersion performance, Next Generation Impactor (NGI); assay type: physicochemical; details: for Emitted Fraction (%) / Emitted dose / Fine Particle Dose / Fine Particle Fraction (%) / GSD / MMAD / Respirable Dose / Respirable Fraction (%): NGI 60 L/min
# Method: In accordance with US Pharmacopeia (USP) Chapter <601> specification on aerosols and using conditions similar to previously reported (Meenach S A, et al., AAPS PharmSciTech. 2014; 15(6):1574-1587; Muralidharan P, et al., Molecular Systems Design & Engineering. 2016), the in vitro aerosol dispersion properties of the dry powder particles were determined using the Next Generation Impactor® (NGI®) with a stainless steel induction port (USP throat) attachment (NGI® Model 170), equipped with specialized stainless steel NGI® gravimetric insert cups (MSP Corporation, Shoreview, Md., USA). The NGI® was coupled with a Copley TPK 2000 critical flow controller connected to a Copley HCP5 vacuum pump, and the airflow rate (Q), was measured and adjusted prior to each experiment using a Copley DFM 200 flow meter (Copley Scientific, UK).
# The mass of powder deposited on each stage was quantified by a gravimetric method using type A/E glass fiber filters with diameter 55 mm (PALL Corporation, Port Washington, N.Y.) and 75 mm (Advance, Japan). Quali-V clear HPMC size 3 inhalation grade capsules (Qualicaps, North Carolina) filled with about 10 mg of powder were used. Three capsules were used in each experiment. In vitro aerosolization was done in triplicate (n=3) under ambient conditions. The NGI™ was operated at a flow rate of 601 min^1 with an actuation time of 10 s through the inhaler. The glass fiber filter was measured gravimetrically before and after actuation, on each stage, to determine the particle stage deposition. The fine particle dose (FPD), fine particle fraction (FPF), respirable fraction (RF), and emitted dose (ED) were calculated using the following equations:
# [formula] [formula] [formula] The mass mean aerodynamic diameter (MMAD) and geometric standard deviation (GSD) of aerosol dispersion profiles were determined using a Mathematica (Wolfram Research Inc., Champaign, Ill.) program ((Meenach S A, et al., AAPS PharmSciTech. 2014; 15(6):1574-1587; Muralidharan P, et al., Molecular Systems Design & Engineering. 2016). The aerosol dispersion performance was tested using three FDA approved inhalers Handihaler®, Aerolizer®, and Neohaler®. In Vitro Cell Dose Response Assay
# In accordance with US Pharmacopeia (USP) Chapter <601> specification on aerosols and using conditions similar to previously reported, the in vitro aerosol dispersion properties of the dry powder particles were determined using the Next Generation Impactor® (NGI®) with a stainless steel induction port (USP throat) attachment (NGI® Model 170), equipped with specialized stainless steel NGI® gravimetric insert cups (MSP Corporation, Shoreview, Md., USA). The NGI® was coupled with a Copley TPK 2000 critical flow controller connected to a Copley HCP5 vacuum pump, and the airflow rate (Q), was measured and adjusted prior to each experiment using a Copley DFM 200 flow meter (Copley Scientific, UK).
# The mass of powder deposited on each stage was quantified by gravimetric method using type A/E glass fiber filters with diameter 55 mm (PALL Corporation, Port Washington, N.Y.) and 75 mm (Advance, Japan). Quali-V clear HPMC size 3 inhalation grade capsules (Qualicaps, North Carolina) filled with about 10 mg of powder were used. Three capsules were used in each experiment. In vitro aerosolization was done in triplicate (n=3) under ambient conditions. The NGI™ was operated at a flow rate of 601 min^−1 with a delay time of 10 s before actuation of the inhaler, followed by 10 s of airflow through the inhaler. The glass fiber filter was measured gravimetrically before and after actuation, on each stage, to determine the particle stage deposition. The fine particle dose (FPD), fine particle fraction (FPF), respirable fraction (RF), and emitted dose (ED) were calculated using the 3-6 equations:
# [4] = test system: monocrotaline (MCT) rat model of PH; assay: In vivo hemodynamic efficacy study in PH induced rats (monocrotaline model); parameters: species or system Sprague Dawley rats; details: for Right ventricle systolic pressure (RVSP): individual rats, inhaled dry powder 10 mg/kg for 14 days
# Method: In vivo studies were conducted in a monocrotaline (MCT) rat model with the purpose of testing the efficacy of TMP in decreasing PH. A total of 30 male Sprague Dawley rats (280-350 g) were used in this study. Rats were purchased from Charles River Laboratories International Inc. (Wilmington, Mass.). Rats were weighted weekly to monitor their health. PH was induced by injecting 60 mg/kg of MCT via intraperitoneally. The animals were divided into 5 groups (n=5) into the following categories: 1) Naïve (control), 2) Naïve+TMP, 3) MCT (PH induced) 4) MCT+ treated with vehicle (air), 5) MCT+ treated with TMP. Two weeks after MCT administration, the rats started to get the treatment via aerosolization of a dry powder formulation of SD TMP (10 mg/kg) using a Penn Century Dry Powder Insufflator™—Model DP-4M for 14 days. Right ventricle systolic pressure (RVSP) hemodynamics were performed after 2 weeks and 4 weeks after MCT administration by inserting a customized pressure transducer catheter (SPR-513, Millar Instruments, Houston, Tex.), into the right ventricle (RV) via the right jugular vein and right atrium. The transducer was connected to a Millar Transducer Control Unit TC-510 and PL3504 PowerLab 4/35 data acquisition system (ADInstruments, Inc., Colorado Springs, Colo.). At the end of pressure recording, the animals were euthanized.
# [5] = Laser diffraction particle sizing and size distribution; assay type: physicochemical
# Method: Particle size and size distributions of the particles were determined by laser diffraction with the SALD-7101 (Shimadzu Scientific Instruments, Japan) using conditions previously reported (Li X, Mansour H M., AAPS PharmSciTech. December 2011; 12(4):1420-1430; Meenach S A, et al., Int J Nanomedicine. 2013; 8:275-293; Wu X, et al., Drug design, development and therapy. 2013; 7:59-72; Wu X, et al., Int J Nanomedicine. 2013; 8:1269-1283) for measurement of the mean size and size distribution of SD particles in aqueous suspension. Samples were dispersed in ultrapure water and ultrasonicated for 10 s in water bath ultrasonicator Branson 7500 before measuring particle size. Sample particle dispersion was immediately transferred to particle size measuring cell and kept stirring during measurement in nano particle size analyzer. The low refractive index of 1.50-0.00i was used. Volume-based measurements were obtained. DV10, DV50, and DV90 were used as particle size characterization parameters. The span value was calculated using the equation defined as Span=[(DV90−DV10)/DV50] Equation 1. X-Ray Powder Diffraction (XRPD)
# [6] = Aerolizer, listed as spray dried TMP
# [7] = Handihaler, listed as spray dried TMP
# [8] = Neohaler, listed as spray dried TMP
# [9] = laser diffraction, aqueous suspension, volume-based
# Method for A549 pulmonary cell line: (§1) Cell-based assays are often used to determine if test molecules have effects on cell proliferation or show direct cytotoxicity effects that eventually leads to cell death. The effects of TMP formulations were analyzed by measuring the response of lung adenocarcinoma cells at different concentrations of the drug. […] The H348 pulmonary cell line is a human bronchoalveolar epithelial cell line similar to alveolar type II cells and express lung surfactant associated protein A (SP-A) (Acosta M F, et al., Current pharmaceutical design. 2016; 22(17):2522-2531). […]
# (§2) As previously reported (Acosta et al., 2014, supra), both cell lines were seeded in 96-well plates at 5000 cells/well and 100 μl/well and allowed to attach for 48 hours. […] At this point, the fluorescence intensity was detected at 544 nm (excitation) and 590 nm (emission) using a Synergy H1 Multi-Mode Reader (BioTek Instruments Inc., Winooski, Vt.).
# (§3) Cell-based assays are often used to determine if test molecules have effects on cell proliferation or show direct cytotoxicity effects that eventually leads to cell death. The effects of TMP formulations were analyzed by measuring the response of lung adenocarcinoma cells at different concentrations of the drug. […]
# Method for H358 pulmonary cell line: as §1, §2, §3
structure (smiles),measurement,setting,value
"Cc1nc(C)c(C)nc1C [Raw TMP, tetramethylpyrazine, reference compound]",Effect on cell viability,H358 pulmonary cell line,decrease
same,Residual water content,[1],0.633 ± 0.251% w/w
"Cc1nc(C)c(C)nc1C [SD TMP, tetramethylpyrazine]",Effect on cell viability,H358 pulmonary cell line,didn't affect the cell viability
same,TEER (electrical resistance),[2]; 3 hours after treatment,decreases drastically
same,TEER (electrical resistance),[2]; seven days of culturing after treatment,resistance was regained
same,Residual water content,[1],0.368±0.103 % w/w
same,Emitted Fraction (%),[3]; Aerolizer,88%
same,Emitted dose,[3]; Aerolizer,79.98 mg
same,Fine Particle Dose,[3]; Aerolizer,1.15 mg
same,Fine Particle Fraction (%),[3]; Aerolizer,1.41%
same,GSD,[3]; Aerolizer,2.88
same,MMAD,[3]; Aerolizer,15.23 μm
same,Respirable Dose,[3]; Aerolizer,8.16 mg
same,Respirable Fraction (%),[3]; Aerolizer,14.86 ± 8.0%
same,Emitted Fraction (%),[3]; [6],88.76 ± 7.27%
same,Fine Particle Fraction (%),[3]; [6],1.41 ± 0.57%
same,MMAD,[3]; [6],15.23 μm
same,Emitted Fraction (%),[3]; Handihaler,100%
same,Emitted dose,[3]; Handihaler,86.92 mg
same,Fine Particle Dose,[3]; Handihaler,3.33 mg
same,Fine Particle Fraction (%),[3]; Handihaler,3.33%
same,GSD,[3]; Handihaler,5.28
same,MMAD,[3]; Handihaler,68.4 μm
same,Respirable Dose,[3]; Handihaler,37.24 mg
same,Respirable Fraction (%),[3]; Handihaler,8.9 ± 3.87%
same,Emitted Fraction (%),[3]; [7],100 ± 2.03%
same,Fine Particle Fraction (%),[3]; [7],3.83 ± 0.42%
same,MMAD,[3]; [7],68.4 μm
same,Emitted Fraction (%),[3]; Neohaler,88%
same,Emitted dose,[3]; Neohaler,79.28 mg
same,Fine Particle Dose,[3]; Neohaler,3.48 mg
same,Fine Particle Fraction (%),[3]; Neohaler,4.36%
same,MMAD,[3]; Neohaler,43.73 μm
same,Respirable Dose,[3]; Neohaler,25.19 mg
same,Respirable Fraction (%),[3]; Neohaler,14.87 ± 7.30%
same,Emitted Fraction (%),[3]; [8],88.41 ± 6.70%
same,Fine Particle Fraction (%),[3]; [8],4.36 ± 0.65%
same,MMAD,[3]; [8],43.73 μm
same,Particles deposited on the first NGI stage,[3]; in vitro aerosol stage deposition,above 90%
same,Right ventricle systolic pressure (RVSP),[4]; Group 2 (Naive + TMP),20-25 mmHg and ~25 mmHg and 23.8990 mmHg and 24.7030 mmHg and 26.0550 mmHg and 19.6940 mmHg and 20.8110 mmHg and 24.2410 mmHg
same,Right ventricle systolic pressure (RVSP),"[4]; Group 5 (MCT + TMP), 4 weeks after MCT",58.6830 mmHg and 62.4200 mmHg and 43.3890 mmHg and 59.8200 mmHg and 78.2010 mmHg and 70.5310 mmHg
same,Body weight,"[4]; Group 5 (MCT + TMP), measured weekly",significant loss of weight
same,"Decrease of RVSP relative to group 3 (MCT, 4 weeks)","[4]; Group 5, after two weeks of aerosol treatment",20-30 mmHg
same,Effect on cell viability,A549 pulmonary cell line,didn't affect the cell viability
same,Amount of drug found not to be toxic to pulmonary cell lines,"A549 pulmonary cell line; human, 72 h",up to 7 mg
same,Particle sizing span value,[5]; (Dv90-Dv10)/Dv50,1.684±0.645
same,Particle size distribution (size range),[5]; laser diffraction,4-14 μm
same,Particle sizing Dv10,[5]; [9],4.186±0.701 μm
same,Particle sizing Dv50,[5]; [9],6.156±1.47 μm and 6.156 ± 1.147 μm
same,Particle sizing Dv90,[5]; [9],14.552±4.928 μm
